The record followed here is ChEMBL document CHEMBL5032524, “Discovery of novel IDO1 inhibitors targeting the protein's apo form through scaffold hopping from holo-IDO1 inhibitor” (Bioorg Med Chem Lett, 2021).

Assay [1] addresses T1, Indoleamine 2,3-dioxygenase 1 (Homo sapiens, UniProt P14902). Nature of the assay: Inhibition of recombinant human IDO1.
Assay [2] addresses T1, Indoleamine 2,3-dioxygenase 1. Kind of assay: Inhibition of IDO1 in human HeLa cells. The assay is classed as cell-based.

Molecules are shown by their SMILES. Where only a bound is given, the exact number is not on record here.

T1 sequence (P14902 whole entry): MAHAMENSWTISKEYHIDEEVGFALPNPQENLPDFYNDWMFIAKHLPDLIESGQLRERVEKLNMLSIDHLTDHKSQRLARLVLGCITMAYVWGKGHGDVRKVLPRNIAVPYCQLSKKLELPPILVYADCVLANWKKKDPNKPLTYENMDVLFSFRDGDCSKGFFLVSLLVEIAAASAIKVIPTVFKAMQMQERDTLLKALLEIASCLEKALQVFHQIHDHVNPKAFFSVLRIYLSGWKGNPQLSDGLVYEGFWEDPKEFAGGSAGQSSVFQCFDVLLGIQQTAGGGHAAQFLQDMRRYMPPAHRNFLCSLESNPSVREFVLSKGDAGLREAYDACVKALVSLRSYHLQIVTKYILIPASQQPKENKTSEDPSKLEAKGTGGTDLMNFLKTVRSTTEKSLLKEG

What is called IC50 is the concentration at which inhibition is half-maximal. For `CC(C)CN(CC(C)C)c1ccc(/C(=N/O)Nc2ccc(F)c(Br)c2)cc1NC(=O)Nc1cncnc1`, the IC50 in assay [1] is > 3000 nM; in assay [2], 860 nM.

Take `CCCNC(=O)Nc1cc(/C(=N/O)Nc2ccc(F)c(Br)c2)ccc1N(CC(C)C)CC(C)C`: the concentration for half-maximal inhibition (IC50) in assay [1] stood at 2900 nM; in assay [2] it was 2610 nM.

In the case of `CC(C)CN(CC(C)C)c1ccc(/C(=N/O)Nc2ccc(F)c(Br)c2)cc1NC(=O)NC1CCCCC1`, the concentration for half-maximal inhibition (IC50) was > 3000 nM in assay [1] and 1340 nM in assay [2].

Turning to `Cc1ccc(NC(=O)Nc2cc(/C(=N/O)Nc3ccc(C)cc3)ccc2N(CC(C)C)CC(C)C)cc1`, the IC50 in assay [1] was found to be 1560 nM; in assay [2], 1340 nM.

Take `Cc1ccc(NC(=O)Nc2cc(/C(=N/O)Nc3ccc(F)c(Br)c3)ccc2N(CC(C)C)CC(C)C)cc1`: the IC50 stood at 2300 nM in assay [1] and 760 nM in assay [2].

In the case of `CC(C)CN(CC(C)C)c1ccc(/C(=N/O)Nc2ccc(F)c(Br)c2)cc1NC(=O)Nc1ccc(C(F)(F)F)cc1`, the results for the IC50 in assay [1] and in assay [2] were > 3000 nM and 2090 nM, respectively.

Turning to `CCCCNC(=O)Nc1cc(/C(=N/O)Nc2ccc(F)c(Br)c2)ccc1N(CC(C)C)CC(C)C`, the 50% inhibitory concentration (IC50) in assay [1] is > 3000 nM; in assay [2], 3110 nM.

Turning to `CC(C)CN(CC(C)C)c1ccc(/C(=N/O)Nc2ccc(F)c(Br)c2)cc1NC(=O)Nc1ccc(Cl)cc1`, the half-inhibitory concentration (IC50) in assay [1] amounted to 1490 nM; in assay [2], 440 nM.

As for `Cc1ccc(N/C(=N\O)c2ccc(N(CC(C)C)CC(C)C)c(NC(=O)Nc3cncnc3)c2)cc1`, the IC50 amounted to 2320 nM in assay [1] and 440 nM in assay [2].

For `CCCNC(=O)Nc1nonc1/C(=N/O)Nc1ccc(F)c(Br)c1`, the IC50 in assay [1] came out at 127 nM.
